Experimental data published in US10905691B2, “Use of triazolo(4,5-d)pyrimidine derivatives for prevention and treatment of bacterial infection” (Universite de Liege, priority 2016, dated 2021).
Values after ≈ are worked out from the molar mass of the structure shown.

What was measured:
S. aureus ATCC 6538 = test: MBC and MDK99.9 determination (CFU counting); assay type: cell-based, Staphylococcus aureus
Procedure: Further experiments were conducted using different strains of S. aureus, as clinically relevant Gram-positive bacterial strains: ATCC 25904, ATCC 6538, methilcillin-resistant S. aureus (MRSA) ATCC BAA-1556, Glycopeptide intermediate-resistant (GISA) S. aureus Mu-50 (ATCC 700695) in order to determine the Minimal Inhibitory Concentration (MIC) which is the minimal concentration required to prevent bacterial growth; the Minimal Bactericidal Concentration (MBC) which determines the lowest concentration at which an antimicrobial agent kill a particular microorganism and a Minimum Duration for killing 99.9% bacteria (MDK99.9) which is a tolerance metric according to the EUCAST.
MBC and MDK99.9 determination: A single colony selected from the different strains of S. aureus is resuspended and cultured in the appropriate medium (TSB, or BHI) overnight (O/N) in aerobic conditions (37° C. with 220 rpm shaking), next day a 1:100 inoculum in the appropriate medium was incubated in aerobic conditions for 2 h. The culture is then challenged with triafluocyl at MIC concentration or higher concentrations. Bacterial growth was measured after different time intervals by counting the colony-forming units after plating appropriate culture dilutions on BHI agar plates. […] And the real time needed is defined as the MDK99.9. […]

S. epidermidis = test: Growth of low-density inoculum (OD600, 4 hr); assay type: cell-based, Staphylococcus epidermidis; settings: inoculum 0.08×10^6 CFU/ml
From the text: Moreover, we have tested the effect of Triafluocyl on a low-density inoculum, 0.08×10^6 CFU/ml, from a culture of S. epidermidis in logarithmic phase.

S. epidermidis biofilm = test: Biofilm formation (crystal violet, 24-well plate); assay type: cell-based, Staphylococcus epidermidis
Procedure: To study the effect of Triafluocyl on biofilm formation, S. epidermidis in early logarithmic phase (5×10^8 CFU/ml) was plated in a 24-well plate and let to adhere at the bottom of the well for 4 hr at 37° C. in static conditions. After 4 hr incubation, planktonic bacteria were removed and adherent bacteria were washed twice in TSB. Fresh TSB medium supplemented or not with 0.25% glucose was added to the well with 5 different concentrations of Triafluocyl and incubated for 24 hours. Wells were washed 3 times with NaCl 0.9% and incubated for 1 hr at RT with Crystal Violet 1% solution in dH2O to stain the biofilm. Wells were washed 3 times with dH2O to eliminate unbound crystal violet, then 400 μl Acetic Acid 10% was added and incubated at RT for 10 min. Absorbance was measured in triplicate at 570 nm, reflecting total biomass of the biofilm (live and dead bacteria). The concentration of Triafluocyl that inhibits at least 90% biofilm formation is called minimum biofilm inhibitory concentration (MBIC). Triafluocyl MBIC for S. epidermidis is 50 μg/ml both in the presence and in the absence of glucose.

[1] = tested on: S. epidermidis mature biofilm; test: Mature biofilm (24-hour) treatment, LIVE/DEAD BacLight staining; assay type: cell-based, Staphylococcus epidermidis; settings: 24 hr treatment of 24-hour biofilm
From the text: In another experiment we let adhere 0.5×10^8 CFU/ml S. epidermidis cells for 4 hr and let the biofilm form for additional 24 hr in presence of 0.25% glucose, at this point we treated the biofilm with several concentrations of Triafluocyl for 24 hr in TSB with 0.25% glucose and determined the viable count (FIG. 7) as well as the percentage of live cells using the BacLight bacterial viability kit (Molecular Probes).
In the same experiment we also determined the percentage of live and dead bacteria. To do so we followed the procedure of the kit LIVE/DEAD from Molecular Probes. Briefly, the biofilm was resuspended in a solution of 0.9% NaCl and cells were stained with a mixture of SYTO9 (green fluorescence) and propidium iodide (PI) (red fluorescence) for 15 min in the dark. Stained cells were transferred in a 96-well plate and fluorescence was measured using the Enspire Spectrophotometer with excitation wavelength of 470 nm and emission spectra in the range of 490-700 nm. SYTO9 dye (green fluorescence 500-520 nm) penetrates all the cells (dead and live) and binds to DNA, while PI (red fluorescence in the range 610-630 nm) enters only in dead cells with a damaged cell membrane. When PI and SYTO9 are in the same cell the green fluorescence intensity decreases. […]

S. aureus Mu50 GISA = test: Killing curve (CFU counting); assay type: cell-based, Staphylococcus aureus; settings: Triafluocyl 20 μg/ml vs high dose of Minocycline; FIG. 8B
Procedure: S. aureus Mu50 GISA was grown overnight in brain heart infusion (BHI) medium, diluted 1:100 in fresh BHI, and incubated aerobically at 37° C. until bacteria growth reached a logarithmic phase (OD600=0.25-0.3).
[…] Bacterial growth was measured after different time intervals by counting the colony-forming units after plating appropriate culture dilutions on BHI agar plates.

CCCSc1nc(N[C@@H]2C[C@H]2c2ccc(F)c(F)c2)c2nnn([C@@H]3C[C@H](OCCO)[C@@H](O)[C@H]3O)c2n1 [Triafluocyl, (1S,2S,3R,5S)-3-[7-[(1R,2S)-2-(3,4-difluorophenyl)cyclopropylamino]-5-(propylthio)-3H-[1,2,3]-triazolo[4,5-d]pyrimidin-3-yl]-5-(2-hydroxyethoxy)-1,2-cyclopentanediol]
MDK 99.9 Time (h) needed to kill 99.9% of the started inoculum (S. aureus ATCC 6538): 6 h
MBC (S. aureus ATCC 6538; Staphylococcus aureus, ATCC6538, cut-off 99.9% reduction in CFU): 20 µg/mL (≈ 38.3 µM)
decrease of OD600 compared to growth in absence of Triafluocyl (S. epidermidis; 5 μg/ml): 50%
growth (OD600) of low-density inoculum (S. epidermidis; 10 μg/ml): inhibited growth
growth (OD600) of low-density inoculum (S. epidermidis; 20 μg/ml): inhibited growth
biofilm reduction (S. epidermidis biofilm; 20 μg/ml, presence of glucose (0.25%), 24 hours): 50%
inhibition at 5 µg/mL (S. epidermidis biofilm; Staphylococcus epidermidis, 5 μg/ml, absence of glucose, 24 hours): 50%
minimum biofilm inhibitory concentration (MBIC), at least 90% inhibition of biofilm formation (S. epidermidis biofilm; absence of glucose): 50 µg/mL
minimum biofilm inhibitory concentration (MBIC), at least 90% inhibition of biofilm formation (S. epidermidis biofilm; presence of glucose): 50 µg/mL
percentage of live bacteria in the biofilm ([1]; 20 μg/ml): 80%
percentage of live bacteria in the biofilm ([1]; 50 μg/ml): 30%
antibacterial effect on S. aureus GISA compared with Minocycline (S. aureus Mu50 GISA): quicker and more efficient antibacterial effect
